Test results as given in US10314308B2, “Microbiocidal benzoxaboroles” (SYNGENTA PARTICIPATIONS AG, priority 2015, dated 2019).

Legend:
[1] = test system: Glomerella Lagenarium(Colletotrichum Ladenarium); assay: Glomerella lagenarium (Colletotrichum lagenarium) / liquid culture (anthracnose); assay type: cell-based; details: PDB potato dextrose broth, 24° C., 3-4 days after application, read-out: disease control (inhibition of growth, photometrically)
Experimental: (§1) 10 Glomerella Lagenarium(Colletotrichum Ladenarium)/Liquid Culture (Anthracnose) Conidia of the fungus from cryogenic storage were directly mixed into nutrient broth (PDB potato dextrose broth). After placing a DMSO solution of test compound into a 96-well microtiter plate, the nutrient broth containing the fungal spores was added. The test plates were incubated at 24° C. and the inhibition of growth was measured photometrically 3-4 days after application.

[2] = test system: Monographella Nivalis(Microdochium Nivale); assay: Monographella nivalis (Microdochium nivale) / liquid culture (foot rot cereals); assay type: cell-based; details: PDB potato dextrose broth, 24° C., 4-5 days after application, read-out: disease control (inhibition of growth, photometrically)
Experimental: as §1, with “14 Monographella Nivalis(Microdochium Nivale)/Liquid” for “10 Glomerella Lagenarium(Colletotrichum Ladenarium)/Liquid”, “(Foot Rot Cereals)” for “(Anthracnose)”, “determined” for “measured”, “4-5” for “3-4”

Pythium Ultimum = assay: Pythium ultimum / liquid culture (seedling damping off); assay type: cell-based; details: Globisporangium ultimum, potato dextrose broth, 24° C., 2-3 days after application, read-out: disease control (inhibition of growth, photometrically)
[3] = test system: Mycosphaerella Arachidis(Cercospora Arachidicola); assay: Mycosphaerella arachidis (Cercospora arachidicola) / liquid culture (early leaf spot); assay type: cell-based; details: PDB potato dextrose broth, 24° C., 4-5 days after application, read-out: disease control (inhibition of growth, photometrically)
Experimental: as §1, with “11 Mycosphaerella Arachidis(Cercospora Arachidicola)/Liquid” for “10 Glomerella Lagenarium(Colletotrichum Ladenarium)/Liquid”, “(Early Leaf Spot)” for “(Anthracnose)”, “determined” for “measured”, “4-5” for “3-4”

[4] = test system: Thanatephorus Cucumeris(Rhizoctonia Solani); assay: Thanatephorus cucumeris (Rhizoctonia solani) / liquid culture (foot rot, damping-off); assay type: cell-based; details: PDB potato dextrose broth, 24° C., 3-4 days after application, read-out: disease control (inhibition of growth, photometrically)
Experimental: 16 Thanatephorus Cucumeris(Rhizoctonia Solani)/Liquid Culture (Foot Rot, Damping-Off) Mycelia fragments of a newly grown liquid culture of the fungus were directly mixed into nutrient broth (PDB potato dextrose broth). After placing a DMSO solution of the test compounds into a 96-well microtiter plate at an application rate of 200 ppm, the nutrient broth containing the fungal material was added. The test plates were incubated at 24° C. and the inhibition of growth was determined photometrically 3-4 days after application.

Gaeumannomyces Graminis = assay: Gaeumannomyces graminis / liquid culture (take-all of cereals); assay type: cell-based; details: PDB potato dextrose broth, 24° C., 4-5 days after application, read-out: disease control (inhibition of growth, photometrically)
Experimental: (§2) 13 Gaeumannomyces Graminis/Liquid Culture (Take-all of Cereals) Mycelial fragments of the fungus from cryogenic storage were directly mixed into nutrient broth (PDB potato dextrose broth). After placing a DMSO solution of test compound into a 96-well microtiter plate, the nutrient broth containing the fungal spores is added. The test plates were incubated at 24° C. and the inhibition of growth was determined photometrically 4-5 days after application.

[5] = test system: Mycosphaerella Graminicola(Septoria Tritici); assay: Mycosphaerella graminicola (Septoria tritici) / liquid culture (Septoria blotch); assay type: cell-based; details: Zymoseptoria tritici, PDB potato dextrose broth, 24° C., 4-5 days after application, read-out: disease control (inhibition of growth, photometrically)
Experimental: as §2, with “12 Mycosphaerella Graminicola(Septoria Tritici)/Liquid” for “13 Gaeumannomyces Graminis/Liquid”, “(Septoria Blotch) Conidia” for “(Take-all of Cereals) Mycelial fragments”, “was” for “is”

Sclerotinia Sclerotiorum = assay: Sclerotinia sclerotiorum / liquid culture (cottony rot); assay type: cell-based; details: PDB potato dextrose broth, 24° C., 3-4 days after application, read-out: disease control (inhibition of growth, visually)
Experimental: 17 Sclerotinia Sclerotiorum/Liquid Culture (Cottony Rot) Mycelia fragments of a newly grown liquid culture of the fungus were directly mixed into nutrient broth (PDB potato dextrose broth). After placing a (DMSO) solution of the test compounds into a microtiter plate (96-well format) the nutrient broth containing the fungal material was added. The test plates were incubated at 24° C. and the inhibition of growth was determined visually 3-4 days after application.

[6] = test system: Botryotinia Fuckeliana(Botrytis Cinerea); assay: Botryotinia fuckeliana (Botrytis cinerea) / liquid culture (gray mould); assay type: cell-based; details: Vogels broth, 24° C., 3-4 days after application, read-out: disease control (inhibition of growth, photometrically)
Experimental: as §1, with “9 Botryotinia Fuckeliana(Botrytis Cinerea)/Liquid” for “10 Glomerella Lagenarium(Colletotrichum Ladenarium)/Liquid”, “(Gray Mould)” for “(Anthracnose)”, “(Vogels” for “(PDB potato dextrose”, “determined” for “measured”

Fusarium Culmorum = assay: microbe, parasite or virus in culture; assay type: cell-based; details: read-out: disease control (inhibition of growth, photometrically)
Plasmopara Viticola = assay: whole plant or invertebrate; assay type: in vivo; details: foliar, read-out: disease control
[7] = test system: Phaeosphaeria Nodorum (Septoria Nodorum); assay: Phaeosphaeria nodorum (Septoria nodorum) / wheat / leaf disc preventative (glume blotch); assay type: in vivo; details: Parastagonospora nodorum, foliar, wheat leaf segments cv Kanzler, inoculated 2 days after application, assessed 5-7 days after application, read-out: disease control
Experimental: 5 Phaeosphaeria Nodorum (Septoria Nodorum)/Wheat/Leaf Disc Preventative (Glume Blotch) Wheat leaf segments cv Kanzler were placed on agar in a 24-well plate and sprayed with formulated test compound diluted in water. The leaf disks were inoculated with a spore suspension of the fungus 2 days after application. The inoculated test leaf disks were incubated at 20° C. and 75% relative humidity under a light regime of 12/12 h (light/dark) in a climate cabinet and the activity of a compound was assessed as percent disease control compared to untreated when an appropriate level of disease damage appears in untreated check leaf disks (5-7 days after application).

ON=Cc1ccc(-c2cc3c(cc2Cl)COB3O)o1 (single isomer, unassigned) [Compound 22, 5-(5-chloro-1-hydroxy-3H-2,1-benzoxaborol-6-yl)furan-2-carbaldehyde oxime]
188 to 193 °C: melting point
≥ 80%: inhibition at 20 ppm [1] | inhibition at 20 ppm [2] | inhibition at 20 ppm (Pythium Ultimum)

OB1OCc2cc(F)c(-c3ccco3)cc21 [Compound 5]
155 to 164 °C: melting point
≥ 80%: inhibition at 20 ppm [3] | inhibition at 20 ppm [4] | inhibition at 20 ppm [1] | inhibition at 20 ppm [2] | inhibition at 20 ppm (Gaeumannomyces Graminis) | inhibition at 20 ppm [5] | inhibition at 20 ppm (Sclerotinia Sclerotiorum) | inhibition at 20 ppm (Pythium Ultimum) | inhibition at 20 ppm [6] | inhibition at 20 ppm (Fusarium Culmorum) | pest or weed control at 200 ppm (Plasmopara Viticola)

OB1OCc2cc(Cl)c(-c3ccccn3)cc21 [Compound 8]
≥ 80%: inhibition at 20 ppm [3] | inhibition at 20 ppm [1] | inhibition at 20 ppm [5] | inhibition at 20 ppm (Sclerotinia Sclerotiorum) | inhibition at 20 ppm (Pythium Ultimum) | inhibition at 20 ppm [6] | inhibition at 20 ppm (Fusarium Culmorum) | pest or weed control at 200 ppm [7] | pest or weed control at 200 ppm (Plasmopara Viticola)

O=Cc1ccc(-c2cc3c(cc2Cl)COB3O)o1 [Compound 21, 5-(5-chloro-1-hydroxy-3H-2,1-benzoxaborol-6-yl)furan-2-carbaldehyde]
145 to 165 °C: melting point
≥ 80%: inhibition at 20 ppm [1] | inhibition at 20 ppm [2] | inhibition at 20 ppm (Gaeumannomyces Graminis) | inhibition at 20 ppm [5] | inhibition at 20 ppm (Sclerotinia Sclerotiorum) | inhibition at 20 ppm (Pythium Ultimum) | pest or weed control at 200 ppm (Plasmopara Viticola)

Cn1nnc(-c2ccc3c(c2)B(O)OC3)n1 [Compound 31, 5-(1-hydroxy-3H-2,1-benzoxaborol-6-yl)-2-methyl-tetrazole]
209 to 210 °C: melting point
≥ 80%: inhibition at 20 ppm [3] | inhibition at 20 ppm [1] | inhibition at 20 ppm [2] | inhibition at 20 ppm (Pythium Ultimum)

Cc1nc(-c2cc3c(cc2F)COB3O)oc1C [Compound 32, 2-(5-fluoro-1-hydroxy-3H-2,1-benzoxaborol-6-yl)-4,5-dimethyl-oxazole]
164 to 166 °C: melting point
≥ 80%: inhibition at 20 ppm [2] | inhibition at 20 ppm (Pythium Ultimum)

CCc1ccc(-c2cc3c(cc2Cl)COB3O)s1 [Compound 35]
≥ 80%: inhibition at 20 ppm [3] | inhibition at 20 ppm [4] | inhibition at 20 ppm [1] | inhibition at 20 ppm [2] | inhibition at 20 ppm (Gaeumannomyces Graminis) | inhibition at 20 ppm [5] | inhibition at 20 ppm (Pythium Ultimum) | inhibition at 20 ppm (Fusarium Culmorum) | pest or weed control at 200 ppm (Plasmopara Viticola)

Cc1ccc(-c2cc3c(cc2Cl)COB3O)o1 [Compound 36]
≥ 80%: inhibition at 20 ppm [3] | inhibition at 20 ppm [4] | inhibition at 20 ppm [1] | inhibition at 20 ppm [2] | inhibition at 20 ppm (Gaeumannomyces Graminis) | inhibition at 20 ppm [5] | inhibition at 20 ppm (Sclerotinia Sclerotiorum) | inhibition at 20 ppm (Pythium Ultimum) | inhibition at 20 ppm [6] | inhibition at 20 ppm (Fusarium Culmorum) | pest or weed control at 200 ppm (Plasmopara Viticola)

OCc1ccc(-c2cc3c(cc2Cl)COB3O)o1 [Compound 40]
≥ 80%: inhibition at 20 ppm [3] | inhibition at 20 ppm [1] | inhibition at 20 ppm [2] | inhibition at 20 ppm (Gaeumannomyces Graminis) | inhibition at 20 ppm [5] | inhibition at 20 ppm (Sclerotinia Sclerotiorum) | inhibition at 20 ppm (Pythium Ultimum) | inhibition at 20 ppm [6] | inhibition at 20 ppm (Fusarium Culmorum)

OB1OCc2cc(Cl)c(-c3cocc3Br)cc21 [Compound 44]
≥ 80%: inhibition at 20 ppm [3] | inhibition at 20 ppm [4] | inhibition at 20 ppm [1] | inhibition at 20 ppm [2] | inhibition at 20 ppm (Gaeumannomyces Graminis) | inhibition at 20 ppm [5] | inhibition at 20 ppm (Sclerotinia Sclerotiorum) | inhibition at 20 ppm (Pythium Ultimum) | inhibition at 20 ppm [6] | inhibition at 20 ppm (Fusarium Culmorum) | pest or weed control at 200 ppm (Plasmopara Viticola)

OB1OCc2cc(Cl)c(-c3sccc3Br)cc21 [Compound 45]
≥ 80%: inhibition at 20 ppm [3] | inhibition at 20 ppm [4] | inhibition at 20 ppm [1] | inhibition at 20 ppm [2] | inhibition at 20 ppm (Gaeumannomyces Graminis) | inhibition at 20 ppm [5] | inhibition at 20 ppm (Sclerotinia Sclerotiorum) | inhibition at 20 ppm (Pythium Ultimum) | inhibition at 20 ppm [6] | inhibition at 20 ppm (Fusarium Culmorum) | pest or weed control at 200 ppm (Plasmopara Viticola)

OB1OCc2cc(F)c(-c3cncc(Cl)n3)cc21 [Compound 57]
≥ 80%: inhibition at 20 ppm [3] | inhibition at 20 ppm [2] | inhibition at 20 ppm (Gaeumannomyces Graminis) | inhibition at 20 ppm [5] | inhibition at 20 ppm (Sclerotinia Sclerotiorum) | inhibition at 20 ppm (Pythium Ultimum) | inhibition at 20 ppm [6] | inhibition at 20 ppm (Fusarium Culmorum) | pest or weed control at 200 ppm [7] | pest or weed control at 200 ppm (Plasmopara Viticola)

OB1OCc2cc(Cl)c(-c3cncc(Cl)n3)cc21 [Compound 68]
≥ 80%: inhibition at 20 ppm [3] | inhibition at 20 ppm [2] | inhibition at 20 ppm (Gaeumannomyces Graminis) | inhibition at 20 ppm [5] | inhibition at 20 ppm (Sclerotinia Sclerotiorum) | inhibition at 20 ppm (Pythium Ultimum) | inhibition at 20 ppm [6] | pest or weed control at 200 ppm [7] | pest or weed control at 200 ppm (Plasmopara Viticola)

OB1OCc2cc(Cl)c(-c3cc4ccccc4[nH]3)cc21 [Compound 72]
≥ 80%: inhibition at 20 ppm [3] | inhibition at 20 ppm [4] | inhibition at 20 ppm [1] | inhibition at 20 ppm [2] | inhibition at 20 ppm (Gaeumannomyces Graminis) | inhibition at 20 ppm [5] | inhibition at 20 ppm (Pythium Ultimum) | inhibition at 20 ppm (Fusarium Culmorum) | pest or weed control at 200 ppm (Plasmopara Viticola)

OB1OCc2cc(F)c(-c3ccoc3)cc21 [Compound 75]
≥ 80%: inhibition at 20 ppm [3] | inhibition at 20 ppm [4] | inhibition at 20 ppm [1] | inhibition at 20 ppm [2] | inhibition at 20 ppm (Gaeumannomyces Graminis) | inhibition at 20 ppm [5] | inhibition at 20 ppm (Sclerotinia Sclerotiorum) | inhibition at 20 ppm (Pythium Ultimum) | inhibition at 20 ppm [6] | inhibition at 20 ppm (Fusarium Culmorum) | pest or weed control at 200 ppm (Plasmopara Viticola)

COc1ncccc1-c1cc2c(cc1F)COB2O [Compound 81]
≥ 80%: inhibition at 20 ppm [3] | inhibition at 20 ppm [1] | inhibition at 20 ppm [2] | inhibition at 20 ppm (Gaeumannomyces Graminis) | inhibition at 20 ppm [5] | inhibition at 20 ppm (Sclerotinia Sclerotiorum) | inhibition at 20 ppm (Pythium Ultimum) | pest or weed control at 200 ppm [7] | pest or weed control at 200 ppm (Plasmopara Viticola)

OB1OCc2cc(Cl)c(-c3ccoc3)cc21 [Compound 84]
≥ 80%: inhibition at 20 ppm [3] | inhibition at 20 ppm [4] | inhibition at 20 ppm [1] | inhibition at 20 ppm [2] | inhibition at 20 ppm (Gaeumannomyces Graminis) | inhibition at 20 ppm [5] | inhibition at 20 ppm (Sclerotinia Sclerotiorum) | inhibition at 20 ppm (Pythium Ultimum) | inhibition at 20 ppm (Fusarium Culmorum) | pest or weed control at 200 ppm (Plasmopara Viticola)
